Like-named read-outs stand apart in the source and are kept apart here.
Experiments:
Assay in all cases: Sensitivity test (agar dilution)
[1] = system: K. pneumoniae ATCC10031; type: cell-based, Klebsiella pneumoniae; conditions: Klebsiella pneumoniae
In short: (§1)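 FIC index is computed from MICs of each drug alone versus in combination (≤1 = enhancement, >1 = none). MICs are measured on Mueller Hinton agar plates carrying twofold dilution series and inoculated with about 10^6 CFU/ml bacterial suspension.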

[2] = system: P. mirabiris GN2425; type: cell-based, Proteus mirabilis; conditions: Proteus mirabilis
In short: as §1

[3] = system: S. marcescens GN6473; type: cell-based, Serratia marcescens; conditions: Serratia marcescens
In short: as §1

[4] = system: S. marcescens X 100; type: cell-based, Serratia marcescens
In short: as §1

[5] = system: E. aerogenes ATCC13048; type: cell-based, Enterobacter aerogenes; conditions: Klebsiella aerogenes
In short: as §1

[6] = system: P. aeruginosa IFO3451; type: cell-based, Pseudomonas aeruginosa; conditions: Pseudomonas aeruginosa
In short: as §1

[7] = system: P. aeruginosa TL-2667; type: cell-based, Pseudomonas aeruginosa; conditions: Pseudomonas aeruginosa
In short: as §1

C[C@H]1C=C(c2csc(SC3=C(C(=O)O)N4C(=O)[C@H]([C@@H](C)O)[C@H]4[C@H]3C)n2)CN1 [SM, (4R,5S,6S)-6-[(1R)-1-Hydroxyethyl]-4-methyl-3-({4-[(5S)-5-methyl-2,5-dihydro-1H-pyrrol-3-yl]-1,3-thiazol-2-yl}sulfanyl)-7-oxo-1-azabicyclo[3.2.0]hept-2-ene-2-carboxylic acid]
MIC ([1]; ATCC10031, Concomitant (IPM:SM = 1:1), read-out: MIC): 0.031 µg/mL | MIC ([1]; ATCC10031, Concomitant (MEPM:SM = 1:1), read-out: MIC): ≤ 0.016 µg/mL | MIC ([1]; ATCC10031, Concomitant (MEPM:SM = 1:2), read-out: MIC): ≤ 0.031 µg/mL | MIC ([1]; ATCC10031, Concomitant (MEPM:SM = 1:4), read-out: MIC): ≤ 0.063 µg/mL | MIC ([1]; ATCC10031, Concomitant (PAPM:SM = 1:1), K. pneumoniae ATCC10031, read-out: MIC concomitant): 0.016 µg/mL | MIC ([1]; ATCC10031, Concomitant (PIPC:SM = 1:1), K. pneumoniae ATCC10031, read-out: MIC concomitant): 0.016 µg/mL | MIC ([1]; ATCC10031, Concomitant drug (MEPM:SM = 2:1), read-out: MIC): ≤ 0.008 µg/mL | MIC ([2]; GN2425, Concomitant (IPM:SM = 1:1)): 0.25 µg/mL | MIC ([2]; GN2425, Concomitant (MEPM:SM = 1:1)): ≤ 0.016 µg/mL | MIC ([2]; GN2425, Concomitant (MEPM:SM = 1:2)): 0.063 µg/mL | MIC ([2]; GN2425, Concomitant (MEPM:SM = 1:4)): ≤ 0.063 µg/mL | MIC ([2]; GN2425, Concomitant drug (MEPM:SM = 2:1)): 0.016 µg/mL | MIC ([2]; GN2425, alone): 0.125 µg/mL | MIC ([2]; GN2425, read-out: MIC alone, drug alone, P. mirabiris GN2425): 0.125 µg/mL | MIC ([2]; GN2425, read-out: MIC concomitant, Concomitant (AZT:SM = 1:1), P. mirabiris GN2425): 0.004 µg/mL | MIC ([2]; GN2425, read-out: MIC concomitant, Concomitant (BIPM:SM = 1:1), P. mirabiris GN2425): 0.125 µg/mL | MIC ([2]; GN2425, read-out: MIC concomitant, Concomitant (CAZ:SM = 1:1), P. mirabiris GN2425): 0.031 µg/mL | MIC ([2]; GN2425, read-out: MIC concomitant, Concomitant (CPFX:SM = 1:1), P. mirabiris GN2425): 0.031 µg/mL | MIC ([2]; GN2425, read-out: MIC concomitant, Concomitant (DRPM:SM = 1:1), P. mirabiris GN2425): 0.063 µg/mL | MIC ([2]; GN2425, read-out: MIC concomitant, Concomitant (PAPM:SM = 1:1), P. mirabiris GN2425): 0.125 µg/mL | MIC ([2]; GN2425, read-out: MIC concomitant, Concomitant (PIPC:SM = 1:1), P. mirabiris GN2425): 0.063 µg/mL | MIC ([3]; GN6473, Concomitant (AZT:SM = 1:1), S. marcescens GN6473, read-out: MIC concomitant): 0.25 µg/mL | MIC ([3]; GN6473, Concomitant (BIPM:SM = 1:1), S. marcescens GN6473, read-out: MIC concomitant): 0.125 µg/mL | MIC ([3]; GN6473, Concomitant (CAZ:SM = 1:1), S. marcescens GN6473, read-out: MIC concomitant): 0.5 µg/mL | MIC ([3]; GN6473, Concomitant (CPFX:SM = 1:1), S. marcescens GN6473, read-out: MIC concomitant): 1 µg/mL | MIC ([3]; GN6473, Concomitant (DRPM:SM = 1:1), S. marcescens GN6473, read-out: MIC concomitant): 0.063 µg/mL | MIC ([3]; GN6473, Concomitant (IPM:SM = 1:1), read-out: MIC): 0.25 µg/mL | MIC ([3]; GN6473, Concomitant (MEPM:SM = 1:1), read-out: MIC): 0.031 µg/mL | MIC ([3]; GN6473, Concomitant (MEPM:SM = 1:2), read-out: MIC): 0.063 µg/mL | MIC ([3]; GN6473, Concomitant (MEPM:SM = 1:4), read-out: MIC): 0.125 µg/mL | MIC ([3]; GN6473, Concomitant (PAPM:SM = 1:1), S. marcescens GN6473, read-out: MIC concomitant): 0.25 µg/mL | MIC ([3]; GN6473, Concomitant (PIPC:SM = 1:1), S. marcescens GN6473, read-out: MIC concomitant): 4 µg/mL | MIC ([3]; GN6473, Concomitant drug (MEPM:SM = 2:1), read-out: MIC): 0.016 µg/mL | MIC ([3]; GN6473, alone, read-out: MIC): 4 µg/mL | MIC ([3]; GN6473, drug alone, S. marcescens GN6473, read-out: MIC alone): 4 µg/mL | MIC ([4]; Serratia marcescens, X100, Concomitant (AZT:SM = 1:1), S. marcescens X 100, read-out: MIC concomitant): 0.031 µg/mL | MIC ([4]; Serratia marcescens, X100, Concomitant (BIPM:SM = 1:1), S. marcescens X 100, read-out: MIC concomitant): 0.063 µg/mL | MIC ([4]; Serratia marcescens, X100, Concomitant (CAZ:SM = 1:1), S. marcescens X 100, read-out: MIC concomitant): 0.125 µg/mL | MIC ([4]; Serratia marcescens, X100, Concomitant (CPFX:SM = 1:1), S. marcescens X 100, read-out: MIC concomitant): 0.063 µg/mL | MIC ([4]; Serratia marcescens, X100, Concomitant (DRPM:SM = 1:1), S. marcescens X 100, read-out: MIC concomitant): 0.031 µg/mL | MIC ([4]; Serratia marcescens, X100, Concomitant (IPM:SM = 1:1), read-out: MIC): 0.125 µg/mL | MIC ([4]; Serratia marcescens, X100, Concomitant (MEPM:SM = 1:1), read-out: MIC): ≤ 0.016 µg/mL | MIC ([4]; Serratia marcescens, X100, Concomitant (MEPM:SM = 1:2), read-out: MIC): ≤ 0.031 µg/mL | MIC ([4]; Serratia marcescens, X100, Concomitant (MEPM:SM = 1:4), read-out: MIC): ≤ 0.063 µg/mL | MIC ([4]; Serratia marcescens, X100, Concomitant (PAPM:SM = 1:1), S. marcescens X 100, read-out: MIC concomitant): 0.125 µg/mL | MIC ([4]; Serratia marcescens, X100, Concomitant (PIPC:SM = 1:1), S. marcescens X 100, read-out: MIC concomitant): 0.25 µg/mL | MIC ([4]; Serratia marcescens, X100, Concomitant drug (MEPM:SM = 2:1), read-out: MIC): 0.016 µg/mL | MIC ([4]; Serratia marcescens, X100, alone, read-out: MIC): 0.5 µg/mL | MIC ([4]; Serratia marcescens, X100, drug alone, S. marcescens X 100, read-out: MIC alone): 1 µg/mL | MIC ([4]; alone): 1 µg/mL | MIC ([5]; ATCC13048, Concomitant (AZT:SM = 1:1), E. aerogenes ATCC13048, read-out: MIC concomitant): 8 µg/mL | MIC ([5]; ATCC13048, Concomitant (BIPM:SM = 1:1), E. aerogenes ATCC13048, read-out: MIC concomitant): 0.063 µg/mL | MIC ([5]; ATCC13048, Concomitant (CAZ:SM = 1:1), E. aerogenes ATCC13048, read-out: MIC concomitant): 8 µg/mL | MIC ([5]; ATCC13048, Concomitant (CPFX:SM = 1:1), E. aerogenes ATCC13048, read-out: MIC concomitant): 0.031 µg/mL | MIC ([5]; ATCC13048, Concomitant (DRPM:SM = 1:1), E. aerogenes ATCC13048, read-out: MIC concomitant): 0.031 µg/mL | MIC ([5]; ATCC13048, Concomitant (IPM:SM = 1:1), read-out: MIC): 0.125 µg/mL | MIC ([5]; ATCC13048, Concomitant (MEPM:SM = 1:1), read-out: MIC): ≤ 0.016 µg/mL | MIC ([5]; ATCC13048, Concomitant (MEPM:SM = 1:2), read-out: MIC): 0.063 µg/mL | MIC ([5]; ATCC13048, Concomitant (MEPM:SM = 1:4), read-out: MIC): 0.125 µg/mL | MIC ([5]; ATCC13048, Concomitant (PAPM:SM = 1:1), E. aerogenes ATCC13048, read-out: MIC concomitant): 0.25 µg/mL | MIC ([5]; ATCC13048, Concomitant (PIPC:SM = 1:1), E. aerogenes ATCC13048, read-out: MIC concomitant): 8 µg/mL | MIC ([5]; ATCC13048, Concomitant drug (MEPM:SM = 2:1), read-out: MIC): 0.016 µg/mL | MIC ([5]; ATCC13048, alone, read-out: MIC): 8 µg/mL | MIC ([5]; ATCC13048, drug alone, E. aerogenes ATCC13048, read-out: MIC alone): 8 µg/mL | MIC ([6]; IFO3451, Concomitant (AZT:SM = 1:1), P. aeruginosa IFO3451, read-out: MIC concomitant): 2 µg/mL | MIC ([6]; IFO3451, Concomitant (BIPM:SM = 1:1), P. aeruginosa IFO3451, read-out: MIC concomitant): 0.25 µg/mL | MIC ([6]; IFO3451, Concomitant (CAZ:SM = 1:1), P. aeruginosa IFO3451, read-out: MIC concomitant): 2 µg/mL | MIC ([6]; IFO3451, Concomitant (CPFX:SM = 1:1), P. aeruginosa IFO3451, read-out: MIC concomitant): 0.125 µg/mL | MIC ([6]; IFO3451, Concomitant (DRPM:SM = 1:1), P. aeruginosa IFO3451, read-out: MIC concomitant): 0.25 µg/mL | MIC ([6]; IFO3451, Concomitant (IPM:SM = 1:1), read-out: MIC): 0.5 µg/mL | MIC ([6]; IFO3451, Concomitant (MEPM:SM = 1:1), read-out: MIC): 0.5 µg/mL | MIC ([6]; IFO3451, Concomitant (MEPM:SM = 1:2), read-out: MIC): 1 µg/mL | MIC ([6]; IFO3451, Concomitant (MEPM:SM = 1:4), read-out: MIC): 2 µg/mL | MIC ([6]; IFO3451, Concomitant (PAPM:SM = 1:1), P. aeruginosa IFO3451, read-out: MIC concomitant): 2 µg/mL | MIC ([6]; IFO3451, Concomitant (PIPC:SM = 1:1), P. aeruginosa IFO3451, read-out: MIC concomitant): 8 µg/mL | MIC ([6]; IFO3451, Concomitant drug (MEPM:SM = 2:1), read-out: MIC): 0.25 µg/mL | MIC ([6]; IFO3451, alone, read-out: MIC): 8 µg/mL | MIC ([6]; IFO3451, drug alone, P. aeruginosa IFO3451, read-out: MIC alone): 8 µg/mL | MIC ([7]; TL2667, Concomitant (AZT:SM = 1:1), P. aeruginosa TL-2667, read-out: MIC concomitant): 8 µg/mL | MIC ([7]; TL2667, Concomitant (BIPM:SM = 1:1), P. aeruginosa TL-2667, read-out: MIC concomitant): 4 µg/mL | MIC ([7]; TL2667, Concomitant (CAZ:SM = 1:1), P. aeruginosa TL-2667, read-out: MIC concomitant): 8 µg/mL | MIC ([7]; TL2667, Concomitant (CPFX:SM = 1:1), P. aeruginosa TL-2667, read-out: MIC concomitant): 2 µg/mL | MIC ([7]; TL2667, Concomitant (DRPM:SM = 1:1), P. aeruginosa TL-2667, read-out: MIC concomitant): 2 µg/mL | MIC ([7]; TL2667, Concomitant (IPM:SM = 1:1), read-out: MIC): 8 µg/mL | MIC ([7]; TL2667, Concomitant (MEPM:SM = 1:1), read-out: MIC): 4 µg/mL | MIC ([7]; TL2667, Concomitant (MEPM:SM = 1:2), read-out: MIC): 4 µg/mL | MIC ([7]; TL2667, Concomitant (MEPM:SM = 1:4), read-out: MIC): 8 µg/mL | MIC ([7]; TL2667, Concomitant (PAPM:SM = 1:1), P. aeruginosa TL-2667, read-out: MIC concomitant): 16 µg/mL | MIC ([7]; TL2667, Concomitant (PIPC:SM = 1:1), P. aeruginosa TL-2667, read-out: MIC concomitant): 16 µg/mL | MIC ([7]; TL2667, Concomitant drug (MEPM:SM = 2:1), read-out: MIC): 2 µg/mL | MIC ([7]; TL2667, alone, read-out: MIC): 16 µg/mL | MIC ([7]; TL2667, drug alone, P. aeruginosa TL-2667, read-out: MIC alone): 16 µg/mL

— patent publication US20090018111A1, “Novel Antimicrobial Medicament” (priority 2004, published 2009)
